Reference: patent publication US20160177395A1, “BIOMARKERS FOR THE PREDICTION OF RENAL INJURY” (priority 2007, published 2016)
Where “and” joins values, the source holds several entries; their conditions need not be identical. Equal values may be shown once.

Legend:
[1] = system: kidney tissues of treated or untreated rats; experiment: Real-time qRT-PCR of signature amplicons, validation stage, labeled and un-labeled samples (Table 23); conditions: for H31883_DB71_seg13 normalized qRT-PCR result / MUSCYCG1R_DB81_seg19-20 normalized qRT-PCR result / W41270_DB81_seg11 normalized qRT-PCR result: un-labeled sample, one line per animal; for AI045075_DB71_seg6 normalized qRT-PCR expression (Interferon stimulated exonuclease 20 (ISG20) transcript) / H31883_DB71_seg13 normalized qRT-PCR expression (Cyclin-G1 (CCNG1) transcript) / MUSCYCG1R_DB81_seg19-20 normalized qRT-PCR expression / W41270_DB81_seg11 normalized qRT-PCR expression (tumor necrosis factor receptor superfamily, member 12a transcript) / W64472_DB81_seg2 normalized qRT-PCR expression (Interferon stimulated exonuclease 20 (ISG20) transcript) / W83813_DB81_seg27 normalized qRT-PCR expression: un-labeled samples, kidney of individual male/female rats
Source text: New primers were designed for part of the transcripts, and new conditions for several qRT-PCR reactions were used, as described below.
The measurements were normalized in two steps. First—according to the house-keeping-genes normalization factor, and second—each plate was normalized according to ratio of the intensity measurements from samples appearing in it and in the shuffled (normalization) plate (Table 25 provides the plates details and the section “Inter-Plate Normalization” provides details of the normalization process). The normalized values were further scaled by a factor, for ease of viewing.
RT was prepared and qRT-PCR performed and analyzed as described hereinabove. qRT-PCR was performed for the four genes comprising the signature of the discovery stage described in Table 13. Two amplicons were tested for each gene—one representing the wild-type transcript, and another representing an alternative splice variant. Each amplicon was measured using the labeled samples described in Table 9 herein, as well as the un-labeled samples. Samples from both groups (labeled and un-labeled) were tested in seven 96 well plates as described in Table 25. In order to correct possible run to run variations, the following controls were added: 1. several samples were repeated in all 96 wells plates; 2. control shuffled plate was designed which combined samples from all seven test plates.
To account for possible differences of qRT-PCR measurements between the different plates due to experimental artifacts, a normalization plate was planned. This plate, designated hereinabove ‘shuffled plate’, contained samples from all other plates. Real Time PCR was performed on this plate using the primers appropriate for all candidates in tables 26 and 27. For each other plate (plates 1-7 above) and each amplicon, the samples appearing also in the shuffled plate were examined—the ratio between the transcript abundance as measured in the plate to the abundance as measured in the shuffled plate was calculated, outliers were manually removed, and the geometric mean of the left ratios was taken as an additional multiplicative normalization factor for the plate and amplicon.

[2] = system: kidney; experiment: Renal histopathology of rats treated with T1, T2, T3; assay type: in vivo, rat; conditions: rat, in vivo
Procedure: Each group consisted of 6 male and 6 female rats. The additional groups consisted of 6 males and 6 female rats treated with control compound for a single day and for five days, as described in Table 24.
T2 “no observed effect level” (NOEL, i.e., the maximal dose at which no toxic effect is visible) is 15 mg/kg.
At autopsy, both kidneys of each animal were removed and each kidney was cross sectioned. Half of each kidney was sent to RNA extraction and analysis.

[3] = Ds1, Day1, oral gavage, female rat kidney
[4] = Ds1, Day1, oral gavage, male rat kidney
[5] = Ds1, Day5, oral gavage, female rat kidney
[6] = Ds1, Day5, oral gavage, male rat kidney
[7] = Ds2, Day1, oral gavage, female rat kidney
[8] = Ds2, Day1, oral gavage, male rat kidney
[9] = Ds2, Day5, oral gavage, female rat kidney
[10] = Ds2, Day5, oral gavage, male rat kidney

- H31883_DB71_seg13 normalized qRT-PCR result [1, 3]: 0.394 and 0.356 and 0.205
- MUSCYCG1R_DB81_seg19-20 normalized qRT-PCR result [1, 3]: 0.85 and 1.252 and 0.37
- W41270_DB81_seg11 normalized qRT-PCR result [1, 3]: 0.859 and 1.064 and 0.507
- H31883_DB71_seg13 normalized qRT-PCR result [1, 4]: 0.898 and 0.512 and 0.989 and 0.789
- MUSCYCG1R_DB81_seg19-20 normalized qRT-PCR result [1, 4]: 0.918 and 0.845 and 1.025 and 0.713
- W41270_DB81_seg11 normalized qRT-PCR result [1, 4]: 0.567 and 1.106 and 1.844 and 0.808
- H31883_DB71_seg13 normalized qRT-PCR result [1, 5]: 0.701 and 1.155 and 0.791 and 1.096
- MUSCYCG1R_DB81_seg19-20 normalized qRT-PCR result [1, 5]: 0.501 and 0.727 and 0.928 and 1.021
- W41270_DB81_seg11 normalized qRT-PCR result [1, 5]: 0.479 and 0.546 and 0.601 and 0.677
- H31883_DB71_seg13 normalized qRT-PCR result [1, 6]: 1.054 and 0.818 and 0.72
- MUSCYCG1R_DB81_seg19-20 normalized qRT-PCR result [1, 6]: 1.285 and 1.133 and 1.175
- W41270_DB81_seg11 normalized qRT-PCR result [1, 6]: 0.88 and 0.8 and 0.499
- H31883_DB71_seg13 normalized qRT-PCR result [1, 7]: 0.874 and 0.929 and 1.454
- MUSCYCG1R_DB81_seg19-20 normalized qRT-PCR result [1, 7]: 1.132 and 1.211 and 0.575
- W41270_DB81_seg11 normalized qRT-PCR result [1, 7]: 0.847 and 1.043 and 1.227
- H31883_DB71_seg13 normalized qRT-PCR result [1, 8]: 0.276 and 0.164 and 0.218 and 0.211
- MUSCYCG1R_DB81_seg19-20 normalized qRT-PCR result [1, 8]: 1.479 and 0.566 and 1.063 and 1.117
- W41270_DB81_seg11 normalized qRT-PCR result [1, 8]: 2.291 and 1.042 and 1.597 and 1.35
- H31883_DB71_seg13 normalized qRT-PCR result [1, 9]: 0.81 and 0.711 and 1.599 and 1.018
- MUSCYCG1R_DB81_seg19-20 normalized qRT-PCR result [1, 9]: 0.666 and 0.977 and 1.436 and 0.58
- W41270_DB81_seg11 normalized qRT-PCR result [1, 9]: 0.587 and 0.623 and 1.24 and 0.704
- H31883_DB71_seg13 normalized qRT-PCR result [1, 10]: 1.103 and 0.911
- MUSCYCG1R_DB81_seg19-20 normalized qRT-PCR result [1, 10]: 0.765 and 1.037
- W41270_DB81_seg11 normalized qRT-PCR result [1, 10]: 0.494 and 3.181
- AI045075_DB71_seg6 normalized qRT-PCR expression (Interferon stimulated exonuclease 20 (ISG20) transcript) ([1]; dose Ds1, Day1, oral gavage): 0.354 and 1.103 and 0.678 and 0.596
- W64472_DB81_seg2 normalized qRT-PCR expression (Interferon stimulated exonuclease 20 (ISG20) transcript) ([1]; dose Ds1, Day1, oral gavage): 0.483 and 1.31 and 1.296 and 0.52
- W83813_DB81_seg27 normalized qRT-PCR expression ([1]; dose Ds1, Day1, oral gavage): 0.322 and 0.663 and 0.497 and 0.402
- AI045075_DB71_seg6 normalized qRT-PCR expression (Interferon stimulated exonuclease 20 (ISG20) transcript) ([1]; dose Ds1, Day5, oral gavage): 0.615 and 1.082 and 1.102 and 1.032
- W64472_DB81_seg2 normalized qRT-PCR expression (Interferon stimulated exonuclease 20 (ISG20) transcript) ([1]; dose Ds1, Day5, oral gavage): 0.852 and 1.176 and 1.034 and 0.822
- W83813_DB81_seg27 normalized qRT-PCR expression ([1]; dose Ds1, Day5, oral gavage): 0.754 and 1.146 and 1.388 and 0.659
- AI045075_DB71_seg6 normalized qRT-PCR expression (Interferon stimulated exonuclease 20 (ISG20) transcript) ([1]; dose Ds2, Day1, oral gavage): 0.444 and 1.146 and 0.527
- W64472_DB81_seg2 normalized qRT-PCR expression (Interferon stimulated exonuclease 20 (ISG20) transcript) ([1]; dose Ds2, Day1, oral gavage): 0.659 and 1.566 and 0.602
- W83813_DB81_seg27 normalized qRT-PCR expression ([1]; dose Ds2, Day1, oral gavage): 0.67 and 0.137 and 0.761
- AI045075_DB71_seg6 normalized qRT-PCR expression (Interferon stimulated exonuclease 20 (ISG20) transcript) ([1]; dose Ds2, Day5, oral gavage): 0.37 and 1.451 and 0.53
- W64472_DB81_seg2 normalized qRT-PCR expression (Interferon stimulated exonuclease 20 (ISG20) transcript) ([1]; dose Ds2, Day5, oral gavage): 0.368 and 0.779 and 0.656
- W83813_DB81_seg27 normalized qRT-PCR expression ([1]; dose Ds2, Day5, oral gavage): 0.729 and 0.728 and 0.933
SMILES: Nc1nc2ccc(OC(F)(F)F)cc2s1 [T3, 6-(trifluoromethoxy)benzothiazol-2-amine]
- H31883_DB71_seg13 normalized qRT-PCR expression (Cyclin-G1 (CCNG1) transcript) ([1]; dose Ds1, Day1, oral gavage): 0.919 and 0.764 and 0.611 and 0.663 and 0.569 and 1.366 and 0.637 and 0.949 and 0.7 and 0.582 and 1.074
- MUSCYCG1R_DB81_seg19-20 normalized qRT-PCR expression ([1]; dose Ds1, Day1, oral gavage): 0.96 and 0.232 and 0.183 and 1.044 and 1.137 and 0.132 and 0.134 and 0.767 and 0.441 and 0.114 and 0.726
- W41270_DB81_seg11 normalized qRT-PCR expression (tumor necrosis factor receptor superfamily, member 12a transcript) ([1]; dose Ds1, Day1, oral gavage): 0.64 and 0.457 and 0.575 and 0.374 and 0.468 and 0.465 and 0.344 and 0.568 and 0.551 and 0.282 and 0.649
- H31883_DB71_seg13 normalized qRT-PCR expression (Cyclin-G1 (CCNG1) transcript) ([1]; dose Ds1, Day5, oral gavage): 1.65 and 1.003 and 1.338 and 0.576 and 1.082 and 1.358 and 1.585 and 0.946 and 1.094 and 1.3 and 1.301
- MUSCYCG1R_DB81_seg19-20 normalized qRT-PCR expression ([1]; dose Ds1, Day5, oral gavage): 0.649 and 0.716 and 1.035 and 1.226 and 0.857 and 0.625 and 0.525 and 0.398 and 1.413 and 0.62 and 0.638
- W41270_DB81_seg11 normalized qRT-PCR expression (tumor necrosis factor receptor superfamily, member 12a transcript) ([1]; dose Ds1, Day5, oral gavage): 0.722 and 1.807 and 0.483 and 0.899 and 0.832 and 1.015 and 0.699 and 0.495 and 1.093 and 0.482 and 1.957
- H31883_DB71_seg13 normalized qRT-PCR expression (Cyclin-G1 (CCNG1) transcript) ([1]; dose Ds2, Day1, oral gavage): 0.802 and 0.969 and 0.632 and 1.119 and 0.923 and 0.767 and 1.13 and 1.47 and 0.662 and 0.643
- MUSCYCG1R_DB81_seg19-20 normalized qRT-PCR expression ([1]; dose Ds2, Day1, oral gavage): 0.92 and 0.203 and 0.275 and 2.153 and 0.29 and 0.152 and 1.45 and 2.313 and 0.798 and 0.158
- W41270_DB81_seg11 normalized qRT-PCR expression (tumor necrosis factor receptor superfamily, member 12a transcript) ([1]; dose Ds2, Day1, oral gavage): 0.49 and 0.347 and 0.174 and 0.912 and 0.418 and 0.359 (2×) and 0.667 and 0.956 and 0.897
- H31883_DB71_seg13 normalized qRT-PCR expression (Cyclin-G1 (CCNG1) transcript) ([1]; dose Ds2, Day5, oral gavage): 0.942 and 0.718 and 1.058 and 1.087 and 2.34 and 1.259 and 0.705 and 0.846 and 0.949
- MUSCYCG1R_DB81_seg19-20 normalized qRT-PCR expression ([1]; dose Ds2, Day5, oral gavage): 1.567 and 0.875 and 1.708 and 1.024 and 1.119 and 1.475 and 1.004 and 0.658 and 1.003
- W41270_DB81_seg11 normalized qRT-PCR expression (tumor necrosis factor receptor superfamily, member 12a transcript) ([1]; dose Ds2, Day5, oral gavage): 0.762 and 1.066 and 1.119 and 0.472 and 0.766 and 0.944 and 0.363 and 0.605 and 0.43
- Renal damage [2]: no renal damage after up to 35 days of treatment
